Experimental data taken from US5352608A (priority 1992, dated 1994).

Experiments:
[1] = test system: Rhodobacter sphaeroides 2.4.1; assay type: cell-based
Rhodospirillum rubrum Ha = assay: Intrinsic HLR to TeO3^2- (MIC); assay type: cell-based
[2] = test system: Rhodobacter sphaeroides RS2; assay: Intrinsic HLR to TeO3^2- (MIC); assay type: cell-based; conditions: for MIC of RS2 lower than strain 2.4.1, 2.4.7 or WS8: approximately
R. sphaeroides 2.4.1-Ga = assay: Intrinsic HLR to tellurite in R. sphaeroides mutants (MIC); assay type: cell-based, Rhodobacter sphaeroides; conditions: for MIC K2 TeO3: SMM succinate
Method: (§1) All Proteobacteria were grown at 30° C. with the exception of E. coli which was cultured at 37° C. on a Gyrotary shaker. Cultures of R. sphaeroides and R. gelatinosus were grown in LB, YP, or SMM containing either 0.4% succinate, 0.4% malate, or 0.4% butyrate as a carbon source. Cultures of R. capsulatus were grown in RCVB minimal medium containing 0.4% malate as a carbon source; R. rubrum was grown in SMM containing 0.4% malate, and 0.1% yeast extract. R. palustris and R. viridis were grown in SMM containing 0.4% malate, 0.1% yeast extract, and 50 μg/ml each of p-aminobenzoic acid and cyanocobalamin. […] Anaerobic-dark growth of R. sphaeroides on SMM medium containing DMSO, and photoheterotrophic growth conditions have been previously reported.
(§2) Several growth conditions were examined to determine requirements for tellurite reduction in vivo. Table 5 indicates the growth conditions tested.
(§3) ^a MIC were determined in SMM containing succinate at 30° C.
(§4) ^c Supplemented with 60 mM DMSO.

R. sphaeroides PRKA^- = assay: as above; assay type: cell-based, Rhodobacter sphaeroides; conditions: for MIC K2 TeO3: SMM succinate; for Increase in TeO3^2- sensitivity: prkA deletion
Method: as §1, §2, §3, §4

R. sphaeroides PUC705B = assay: as above; assay type: cell-based, Rhodobacter sphaeroides; conditions: SMM succinate
Method: as §1, §2, §3, §4

[3] = test system: tellurite reductase activity, R. sphaeroides PRKA^- B^-; assay: TeO3^2- -dependent FADH2 oxidation in subcellular fractions; assay type: biochemical, Rhodobacter sphaeroides; conditions: 100 μg/ml K2 TeO3
[4] = test system: tellurite reductase activity, R. sphaeroides PUHA1; assay: as above; assay type: biochemical, Rhodobacter sphaeroides; conditions: 100 μg/ml K2 TeO3

Question: How did the “MIC Low-PO4^3- Medium” value [1] turn out when `O=[Te]([O-])[O-].[K+].[K+]` [K2 TeO3] was run?
Answer: The value was 600 mg/L.

Question: What about the “MIC Standard Medium” value [1] of the same compound?
Answer: The value was 600 mg/L.

Question: What about the “MIC ratio 10 W/m^2 vs 3 W/m^2” value [1] of the same compound?
Answer: Its value is “at least two-fold”.

Question: And the “MIC ratio aerobically- vs. photosynthetically-grown” value [1]?
Answer: Its value is “two- to three-fold”.

Question: And the “MIC relative to E. coli” value [1]?
Answer: Its value is “at least 80 times”.

Question: And the “Reduction in TeO3^2- resistance with supplement” value [1]?
Answer: Its value is “thirty- to forty-fold”.

Question: What about the Relative toxicity [1] of the same compound?
Answer: Its Relative toxicity is “SeO4^2- >TeO4^2- >TeO3^2- >SeO3^2- >Rh2 O3.5H2 O”.

Question: What about the Resistance in words [1] of the same compound?
Answer: Its Resistance in words is “intrinsic high level resistance”.

Question: What about the “Resistance to tellurite in words” value (Rhodospirillum rubrum Ha) of the same compound?
Answer: The value was “low resistance”.

Question: What about the “MIC K2 TeO3” value (Rhodospirillum rubrum Ha; aerobic, minimal medium) of the same compound?
Answer: Its value is 20 mg/L.

Question: And the “MIC K2 TeO3” value (Rhodospirillum rubrum Ha; photosynthetic, 10 W/m^2)?
Answer: Its value is 10 mg/L.

Question: And the “MIC K2 TeO3” value ([2]; aerobic, minimal medium)?
Answer: The value was 400 mg/L.

Question: What about the “MIC of RS2 lower than strain 2.4.1, 2.4.7 or WS8” value [2] of the same compound?
Answer: The value was “approximately two-to three fold”.

Question: And the “MIC of RS2 lower than strain 2.4.1, 2.4.7 or WS8” value ([2]; listed as tellurite)?
Answer: Its value is “approximately two- to three-fold”.

Question: And the “MIC K2 TeO3” value ([2]; photosynthetic, 10 W/m^2)?
Answer: The value was 250 mg/L.

Question: What about the “MIC K2 TeO3” value (R. sphaeroides 2.4.1-Ga; aerobic) of the same compound?
Answer: The value was 600 mg/L.

Question: What about the “MIC K2 TeO3” value (R. sphaeroides 2.4.1-Ga; anaerobic-dark, 60 mM DMSO) of the same compound?
Answer: The value was 100 mg/L.

Question: What about the “MIC K2 TeO3” value (R. sphaeroides 2.4.1-Ga; photosynthetic 10 W/m^2) of the same compound?
Answer: The value was 450 mg/L.

Question: What about the “Increase in TeO3^2- sensitivity” value (R. sphaeroides 2.4.1-Ga; vs wild-type) of the same compound?
Answer: Its value is 20%.

Question: What about the “MIC K2 TeO3” value (R. sphaeroides PRKA^-; aerobic) of the same compound?
Answer: The value was 350 mg/L.

Question: And the “MIC K2 TeO3” value (R. sphaeroides PRKA^-; anaerobic-dark, 60 mM DMSO)?
Answer: Its value is 60 mg/L.

Question: What about the “MIC K2 TeO3” value (R. sphaeroides PRKA^-; photosynthetic 10 W/m^2) of the same compound?
Answer: The value was 100 mg/L.

Question: What about the “Increase in TeO3^2- sensitivity” value (R. sphaeroides PRKA^-; aerobic) of the same compound?
Answer: Its value is “two-fold”.

Question: And the “Increase in TeO3^2- sensitivity” value (R. sphaeroides PRKA^-; photosynthetic and anaerobic-dark/DMSO, at least)?
Answer: The value was “at least three- to five-fold”.

Question: What about the “MIC K2 TeO3” value (R. sphaeroides PUC705B; aerobic) of the same compound?
Answer: Its value is 850 mg/L.

Question: And the “MIC K2 TeO3” value (R. sphaeroides PUC705B; anaerobic-dark, 60 mM DMSO)?
Answer: The value was 150 mg/L.

Question: What about the “MIC K2 TeO3” value (R. sphaeroides PUC705B; photosynthetic 10 W/m^2) of the same compound?
Answer: Its value is 500 mg/L.

Question: What about the FADH2 oxidation ([3]; membrane) of the same compound?
Answer: The FADH2 oxidation was 200 nmol/min/mg.

Question: What about the FADH2 oxidation ([3]; periplasm) of the same compound?
Answer: Its FADH2 oxidation is 3 nmol/min/mg.

Question: And the FADH2 oxidation ([4]; cytoplasm)?
Answer: Its FADH2 oxidation is 37 nmol/min/mg.

Question: What about the FADH2 oxidation ([4]; membrane) of the same compound?
Answer: The FADH2 oxidation was 28 nmol/min/mg.

Question: What about the FADH2 oxidation ([4]; periplasm) of the same compound?
Answer: The FADH2 oxidation was 3 nmol/min/mg.
